Reference: patent US20260335277A1, “CHLOROTONIL DERIVATIVES” (priority 2023, published 2026)
≈ marks a conversion by molar mass, not a printed value. Read-outs that look alike come from different tables or passages of the source.

Legend:
E. faecalis ATCC-29212 = test: MIC testing (broth microdilution, EUCAST); format: cell-based; conditions: for MIC E. faecalis: E. faecalis ATCC-29212
Method: (§1) Minimal inhibitory concentration (MIC) of the compounds in the present invention was determined using broth microdilution performed according to EUCAST guidelines (ISO20776-1:2019). S. aureus ATCC29213 and E. faecalis ATCC29212 served as quality control strains.

[1] = test system: E. faecium DSM-17050 (vancomycin-resistant, VRE); test: MIC testing (broth microdilution, EUCAST); format: cell-based
Method: as §1

E. faecium DSM-20477 = test: MIC testing (broth microdilution, EUCAST); format: cell-based; conditions: E. faecium DSM-20477
Method: as §1

[2] = test system: S. aureus N315 (methicillin-resistant, MRSA); test: MIC testing (broth microdilution, EUCAST); format: cell-based
Method: as §1

S. aureus Newman = test: MIC testing (broth microdilution, EUCAST); format: cell-based
Method: as §1

S. epidermidis DSM-28765 = test: MIC testing (broth microdilution, EUCAST); format: cell-based; conditions: S. epidermidis DSM-28765
Method: as §1

[3] = test system: mature gametocytes (stages IV and V); test: Activity against mature gametocytes (stage IV-V), bioluminescence assay; format: cell-based, P. falciparum
Method: Activity against gametocytes was determined using an in vitro bioluminescence assay as described previously (doi.org/10.1371/journal.pone.0035019).

[4] = Toxicity in zebrafish larvae (MTC / IC50); format: in vivo; conditions: zebrafish, zebrafish larvae
Method: (§2) For toxicity screening, zebrafish larvae were exposed three days post fertilization and monitored for 48 h until five days post fertilization. All malformations and pathophysiological phenotypes were noted and used to determine the inhibitory concentration (IC50) of the respective derivative against zebrafish larvae. The selectivity index (SI) was then calculated using the IC50 and the MIC of either S. aureus or P. falciparum 3D7.

zebrafish larvae = test: Toxicity in zebrafish larvae (MTC / IC50); format: in vivo; conditions: for IC50 in zebrafish larvae: exposed 3 days post fertilization, monitored 48 h; for Selectivity Index S. aureus: zebrafish IC50 / MIC S. aureus Newman; for Selectivity Index P. falc 3D7: zebrafish IC50 vs P. falciparum 3D7
Method: as §2

[5] = cited from earlier work
E. faecium = test: MIC 50/90 profiling in multidrug-resistant clinical isolates; format: cell-based; conditions: Enterococcus faecium
Method: as §1
(§3) Activity of dehalogenil against multidrug-resistant clinical isolates of S. aureus (n=100) and Enterococcus spp. […] Compared to the standard of care (linezolid, daptomycin and tigecyclin), dehalogenil MIC90 was lowered in both pathogens by 20-40-fold with unimodal distribution indicating no pre-existing resistances.

[6] = test system: clinical isolates of S. aureus; test: as above; format: cell-based; conditions: Staphylococcus aureus; S. aureus clinical isolates (n = 100)
Method: as §1, §3

[7] = zebrafish IC50 / MIC S. aureus Newman, read-out: Selectivity Index S. aureus
[8] = zebrafish IC50 vs P. falciparum 3D7, read-out: Selectivity Index P. falc 3D7

Compound | MIC E. faecalis (E. faecalis ATCC-29212) [µg/mL] | MIC VRE [1] [µg/mL] | MIC E. faecium (E. faecium DSM-20477) [µg/mL] | MIC MRSA [2] [µg/mL] | MIC S. aureus (S. aureus Newman) [µg/mL] | MIC S. epiderm. (S. epidermidis DSM-28765) [µg/mL] | IC50 [3] [µM] | selectivity ratio [4, 7] | selectivity ratio [4, 8] | IC50 in zebrafish larvae (zebrafish larvae) [µM] | Selectivity Index S. aureus (zebrafish larvae) | Selectivity Index P. falc 3D7 (zebrafish larvae) | MIC (E. faecalis ATCC-29212; Enterococcus faecalis, ATCC29212, E. faecalis ATCC-29212) [µg/mL] | toxic effects in vivo [5] | MIC (E. faecium; read-out: MIC range) [µg/mL] | MIC50 (E. faecium; E. faecium (n = 98)) [µg/mL] | MIC90 (E. faecium; E. faecium (n = 98)) [µg/mL] | MIC [6] [µg/mL] | MIC50 [6] [µg/mL] | MIC90 [6] [µg/mL]
CC1=CC(C)C2C(C=CC3C(C)C=CC=CC(C)OC(=O)C(C)C(=O)CC(=O)C32)C1 (stereo not drawn) [dehalogenil-2′Epi] | 0.2 (≈ 0.487 µM) | 0.1 (≈ 0.244 µM) | 0.05 (≈ 0.122 µM) | 0.1 (≈ 0.244 µM) | 0.2 (≈ 0.487 µM) | 0.4 (≈ 0.974 µM) | 0.0252 ± 0.00163 | 78.9 | 1370 | 38.46 |  |  |  |  |  |  |  |  |  | 
CC1=CC(C)C2C(C=CC3C(C)C=CC=CC(C)OC(=O)C(C)(C)C(=O)C(Cl)=C(O)C32)C1 (stereo not shown) [ChB1-2′Me] | 0.8 (≈ 1.74 µM) | 0.4 (≈ 0.871 µM) | 0.2 (≈ 0.436 µM) | 0.8 (≈ 1.74 µM) | 0.4 (≈ 0.871 µM) | 0.8 (≈ 1.74 µM) |  |  |  | 12.31 | 14.1 | 114.0 |  |  |  |  |  |  |  | 
CC1=C[C@@H](C)[C@H]2[C@@H]3C(O)=C(SS)C(=O)[C@H](C)C(=O)O[C@@H](C)/C=C/C=C\[C@@H](C)[C@@H]3C=C[C@@H]2C1 [thiotonil] | 0.2 (≈ 0.421 µM) | 0.025 (≈ 0.0527 µM) | 0.025 (≈ 0.0527 µM) | 0.4 (≈ 0.843 µM) | 0.4 (≈ 0.843 µM) | 0.4 (≈ 0.843 µM) | 0.0674 ± 0.0086 |  |  |  | >62.5 | >892.9 |  |  |  |  |  |  |  | 
CC1=CC(C)C2C(C=CC3C(C)C=CC=CC(C)OC(=O)CC(=O)C(Cl)=C(O)C32)C1 (stereo not shown) [ChB1-2′DM, 2′Demethylchlorotonil] | 0.4 (≈ 0.928 µM) | 0.4 (≈ 0.928 µM) | 0.4 (≈ 0.928 µM) | 0.4 (≈ 0.928 µM) | 0.4 (≈ 0.928 µM) | 1.6 (≈ 3.71 µM) |  |  |  | 33.24 | 35.8 |  |  |  |  |  |  |  |  | 
CC1C=CC=CC(C)C2C=CC3CC4(C)OC4C(C)C3C2C(=O)CC(=O)C(C)C(=O)O1 (stereo not shown) [Dehalogenil-Epo1] |  | 3.2 (≈ 7.5 µM) | 3.2 (≈ 7.5 µM) | 3.2 (≈ 7.5 µM) | 3.2 (≈ 7.5 µM) | 3.2 (≈ 7.5 µM) |  | 1.31 | 4.9 | 9.85 |  |  | 3.2 (≈ 7.5 µM) |  |  |  |  |  |  | 
CC[C@H](C)[C@H](NC(=O)[C@H]([C@@H](C)CC)N(C)C(C)=O)C(=O)N[C@H](C(=O)N[C@@H](CC(C)C)C(=O)[C@@]1(C)CO1)[C@@H](C)O [epoxomicin] |  |  |  |  |  |  |  |  |  |  |  |  |  | shows toxic effects in vivo |  |  |  |  |  | 
CN(C)c1cc(NC(=O)CNC(C)(C)C)c(O)c2c1C[C@H]1C[C@H]3[C@H](N(C)C)C(=O)C(C(N)=O)=C(O)[C@@]3(O)C(=O)C1=C2O [tigecyclin] |  |  |  |  |  |  |  |  |  |  |  |  |  |  | 0.5 to 16 (≈ 0.854 to 27.3 µM) | 2 (≈ 3.41 µM) | 2 (≈ 3.41 µM) | 1 to 16 (≈ 1.71 to 27.3 µM) | 4 (≈ 6.83 µM) | 8 (≈ 13.7 µM)
CC1=C[C@@H](C)[C@H]2[C@@H]3C(=O)C(Cl)=C([O-])[C@H](C)C(=O)O[C@@H](C)/C=C/C=C\[C@@H](C)[C@@H]3C=C[C@@H]2C1.CC1=C[C@@H](C)[C@H]2[C@@H]3C(=O)C(Cl)=C([O-])[C@H](C)C(=O)O[C@@H](C)/C=C/C=C\[C@@H](C)[C@@H]3C=C[C@@H]2C1.CC1=C[C@@H](C)[C@H]2[C@@H]3C(=O)C(Cl)=C([O-])[C@H](C)C(=O)O[C@@H](C)/C=C/C=C\[C@@H](C)[C@@H]3C=C[C@@H]2C1.[Mg+2].[Na+] [ChB2, reference compound] | 1.6 | 0.8 | 0.4 | >3.2 | 3.2 | 3.2 |  |  |  |  |  |  |  |  |  |  |  |  |  | 
